In ChEMBL document CHEMBL4002566, “S-substituted 3,5-dinitrophenyl 1,3,4-oxadiazole-2-thiols and tetrazole-5-thiols as highly efficient antitubercular agents” (Eur J Med Chem, 2017):
pIC50: −log10 of the molar value. ≈ marks a conversion by molar mass, not a printed value.

Experiments:
[1] = test system: Mycobacterium tuberculosis; experiment: Antimycobacterial activity against Mycobacterium tuberculosis CNCTC My 331/88 after 21 days by micromethod; assay type: functional; conditions: CNCTC My 331/88, 504 h
Staphylococcus aureus [2] = experiment: Antibacterial activity against methicillin-resistant Staphylococcus aureus HK5996/08 after 24 hrs by broth microdilution method; assay type: functional; conditions: HK5996/08, 24 h
Mycobacterium avium [3] = experiment: Antimycobacterial activity against Mycobacterium avium CNCTC My 330/88 after 14 days by micromethod; assay type: functional; conditions: CNCTC My 330/88, 336 h
Trichosporon asahii [4] = experiment: Antifungal activity against Trichosporon asahii 1188 after 24 hrs by broth microdilution method; assay type: functional; conditions: Trichosporon asahii, 1188, 24 h
Mycobacterium kansasii [5] = experiment: Antimycobacterial activity against Mycobacterium kansasii 6509/96 clinical isolate after 14 days by micromethod; assay type: functional; conditions: 6509/96, 336 h
Aspergillus fumigatus [6] = experiment: Antifungal activity against Aspergillus fumigatus 231 after 24 hrs by broth microdilution method; assay type: functional; conditions: Aspergillus fumigatus, 231, 24 h
Mycobacterium kansasii [7] = experiment: Antimycobacterial activity against Mycobacterium kansasii 6509/96 clinical isolate after 21 days by micromethod; assay type: functional; conditions: 6509/96, 504 h
[8] = Cytotoxicity against human A431 cells assessed as cell viability at 30 uM after 48 hrs by MTS assay relative to control; assay type: cell-based, A-431; conditions: read-out: Activity
Trichosporon asahii [9] = experiment: Antifungal activity against Trichosporon asahii 1188 after 48 hrs by broth microdilution method; assay type: functional; conditions: Trichosporon asahii, 1188, 48 h
[10] = test system: Staphylococcus epidermidis; experiment: Antibacterial activity against Staphylococcus epidermidis HK6996/08 after 48 hrs by broth microdilution method; assay type: functional; conditions: HK6996/08, 48 h
Mycobacterium kansasii [11] = experiment: Antimycobacterial activity against Mycobacterium kansasii CNCTC My 235/80 after 21 days by micromethod; assay type: functional; conditions: CNCTC My 235/80, 504 h
Candida albicans [12] = experiment: Antifungal activity against Candida albicans ATCC 44859 after 24 hrs by broth microdilution method; assay type: functional; conditions: ATCC 44859, 24 h
Lichtheimia corymbifera [13] = experiment: Antifungal activity against Absidia corymbifera 272 after 48 hrs by broth microdilution method; assay type: functional; conditions: Lichtheimia corymbifera, 272, 48 h
Nakaseomyces glabratus [14] = experiment: Antifungal activity against Candida glabrata 20/I after 24 hrs by broth microdilution method; assay type: functional
Mycobacterium avium [15] = experiment: Antimycobacterial activity against Mycobacterium avium CNCTC My 330/88 after 21 days by micromethod; assay type: functional; conditions: CNCTC My 330/88, 504 h
Escherichia coli [16] = experiment: Antibacterial activity against Escherichia coli ATCC 8739 after 24 hrs by broth microdilution method; assay type: functional; conditions: ATCC 8739, 24 h
Staphylococcus aureus [17] = experiment: Antibacterial activity against Staphylococcus aureus ATCC 6538 after 24 hrs by broth microdilution method; assay type: functional; conditions: ATCC 6538, 24 h
Pichia kudriavzevii [18] = experiment: Antifungal activity against Candida krusei E28 after 48 hrs by broth microdilution method; assay type: functional; conditions: E28, 48 h
Mycobacterium kansasii [19] = experiment: Antimycobacterial activity against Mycobacterium kansasii CNCTC My 235/80 after 14 days by micromethod; assay type: functional; conditions: CNCTC My 235/80, 336 h
[20] = test system: Trichophyton mentagrophytes; experiment: Antifungal activity against Trichophyton mentagrophytes 445 after 72 hrs by broth microdilution method; assay type: functional; conditions: Trichophyton mentagrophytes, 445, 72 h
Klebsiella pneumoniae [21] = experiment: Antibacterial activity against Klebsiella pneumoniae HK11750/08 after 48 hrs by broth microdilution method; assay type: functional; conditions: HK11750/08, 48 h
Klebsiella pneumoniae [22] = experiment: Antibacterial activity against extended spectrum beta-lactamase producing Klebsiella pneumoniae HK14368/08 after 24 hrs by broth microdilution method; assay type: functional; conditions: HK14368/08, 24 h
[23] = test system: Mycobacterium tuberculosis; experiment: Antimycobacterial activity against Mycobacterium tuberculosis CNCTC My 331/88 after 14 days by micromethod; assay type: functional; conditions: CNCTC My 331/88, 336 h
Enterococcus sp. [24] = experiment: Antibacterial activity against Enterococcus sp. HK14365/08 after 48 hrs by broth microdilution method; assay type: functional; conditions: HK14365/08, 48 h
[25] = Cytotoxicity against human HepG2 cells assessed as cell viability at 30 uM after 48 hrs by MTS assay relative to control; assay type: cell-based; conditions: read-out: Activity
Pseudomonas aeruginosa [26] = experiment: Antibacterial activity against Pseudomonas aeruginosa ATCC 9027 after 24 hrs by broth microdilution method; assay type: functional; conditions: ATCC 9027, 24 h
A-431 = experiment: Cytotoxicity against human A431 cells assessed as cell viability after 48 hrs by MTS assay; assay type: cell-based; conditions: A-431, 48 h
Aspergillus fumigatus [27] = experiment: Antifungal activity against Aspergillus fumigatus 231 after 48 hrs by broth microdilution method; assay type: functional; conditions: Aspergillus fumigatus, 231, 48 h
HepG2 = experiment: Cytotoxicity against human HepG2 cells assessed as cell viability after 48 hrs by MTS assay; assay type: cell-based; conditions: HepG2, 48 h
Klebsiella pneumoniae [28] = experiment: Antibacterial activity against extended spectrum beta-lactamase producing Klebsiella pneumoniae HK14368/08 after 48 hrs by broth microdilution method; assay type: functional; conditions: HK14368/08, 48 h
Huh-7 = experiment: Cytotoxicity against human HuH7 cells assessed as cell viability after 48 hrs by MTS assay; assay type: cell-based; conditions: Huh-7, 48 h
Mycobacterium kansasii [29] = experiment: Antimycobacterial activity against Mycobacterium kansasii 6509/96 clinical isolate after 7 days by micromethod; assay type: functional; conditions: 6509/96, 168 h
Candida albicans [30] = experiment: Antifungal activity against Candida albicans ATCC 44859 after 48 hrs by broth microdilution method; assay type: functional; conditions: ATCC 44859, 48 h
[31] = Cytotoxicity against human HuH7 cells assessed as cell viability at 30 uM after 48 hrs by MTS assay relative to control; assay type: cell-based, Huh-7; conditions: read-out: Activity
Pichia kudriavzevii [32] = experiment: Antifungal activity against Candida krusei E28 after 24 hrs by broth microdilution method; assay type: functional; conditions: E28, 24 h
Staphylococcus aureus [33] = experiment: Antibacterial activity against methicillin-resistant Staphylococcus aureus HK5996/08 after 48 hrs by broth microdilution method; assay type: functional; conditions: HK5996/08, 48 h
Lichtheimia corymbifera [34] = experiment: Antifungal activity against Absidia corymbifera 272 after 24 hrs by broth microdilution method; assay type: functional; conditions: Lichtheimia corymbifera, 272, 24 h
[35] = test system: Trichophyton mentagrophytes; experiment: Antifungal activity against Trichophyton mentagrophytes 445 after 120 hrs by broth microdilution method; assay type: functional; conditions: Trichophyton mentagrophytes, 445, 120 h
Mycobacterium kansasii [36] = experiment: Antimycobacterial activity against Mycobacterium kansasii CNCTC My 235/80 after 7 days by micromethod; assay type: functional; conditions: CNCTC My 235/80, 168 h
Escherichia coli [37] = experiment: Antibacterial activity against Escherichia coli ATCC 8739 after 48 hrs by broth microdilution method; assay type: functional; conditions: ATCC 8739, 48 h
Nakaseomyces glabratus [38] = experiment: Antifungal activity against Candida glabrata 20/I after 48 hrs by broth microdilution method; assay type: functional
MDCK = experiment: Cytotoxicity against MDCK cells assessed as cell viability after 48 hrs by MTS assay; assay type: cell-based; conditions: Canis lupus familiaris
[39] = Selectivity index, ratio of IC50 for human HepG2 cells to MIC for Mycobacterium tuberculosis; assay type: toxicity; conditions: read-out: Selectivity Index
[40] = Cytotoxicity against MDCK cells assessed as cell viability at 30 uM after 48 hrs by MTS assay relative to control; assay type: cell-based, Canis lupus familiaris; conditions: dog, read-out: Activity
Pseudomonas aeruginosa [41] = experiment: Antibacterial activity against Pseudomonas aeruginosa ATCC 9027 after 48 hrs by broth microdilution method; assay type: functional; conditions: ATCC 9027, 48 h
[42] = test system: Staphylococcus epidermidis; experiment: Antibacterial activity against Staphylococcus epidermidis HK6996/08 after 24 hrs by broth microdilution method; assay type: functional; conditions: HK6996/08, 24 h
Staphylococcus aureus [43] = experiment: Antibacterial activity against Staphylococcus aureus ATCC 6538 after 48 hrs by broth microdilution method; assay type: functional; conditions: ATCC 6538, 48 h
Enterococcus sp. [44] = experiment: Antibacterial activity against Enterococcus sp. HK14365/08 after 24 hrs by broth microdilution method; assay type: functional; conditions: HK14365/08, 24 h
Candida tropicalis [45] = experiment: Antifungal activity against Candida tropicalis 156 after 48 hrs by broth microdilution method; assay type: functional; conditions: Candida tropicalis, 156, 48 h
Klebsiella pneumoniae [46] = experiment: Antibacterial activity against Klebsiella pneumoniae HK11750/08 after 24 hrs by broth microdilution method; assay type: functional; conditions: HK11750/08, 24 h
Candida tropicalis [47] = experiment: Antifungal activity against Candida tropicalis 156 after 24 hrs by broth microdilution method; assay type: functional; conditions: Candida tropicalis, 156, 24 h

In the case of `O=[N+]([O-])c1cc(-c2nnc(SCc3ccc(Br)cc3)o2)cc([N+](=O)[O-])c1`, the MIC [1] was 0.06 µM (≈ 0.0262 µg/mL), the MIC (Staphylococcus aureus [2]) was > 125 µM and the MIC (Mycobacterium avium [3]) was 125 µM (≈ 54.7 µg/mL). For the same compound, the MIC (Trichosporon asahii [4]) was > 125 µM, the MIC (Mycobacterium kansasii [5]) was 0.03 µM (≈ 0.0131 µg/mL) and the MIC (Aspergillus fumigatus [6]) was > 125 µM. For the same compound, the MIC (Mycobacterium kansasii [7]) was 0.06 µM (≈ 0.0262 µg/mL), the viability at 48 h, 30 µM [8] was 99% and the MIC (Trichosporon asahii [9]) was > 125 µM. The MIC [10] was > 125 µM, the MIC (Mycobacterium kansasii [11]) was 0.06 µM (≈ 0.0262 µg/mL) and the MIC (Candida albicans [12]) was > 125 µM. The MIC (Lichtheimia corymbifera [13]) was > 125 µM, the MIC (Nakaseomyces glabratus [14]) was > 125 µM and the MIC (Mycobacterium avium [15]) was 125 µM (≈ 54.7 µg/mL). For the same compound, the MIC (Escherichia coli [16]) was > 125 µM, the MIC (Staphylococcus aureus [17]) was > 125 µM and the MIC (Pichia kudriavzevii [18]) was > 125 µM. The MIC (Mycobacterium kansasii [19]) was 0.03 µM (≈ 0.0131 µg/mL), the MIC [20] was > 125 µM and the MIC (Klebsiella pneumoniae [21]) was > 125 µM. The MIC (Klebsiella pneumoniae [22]) was > 125 µM, the MIC [23] was 0.03 µM (≈ 0.0131 µg/mL) and the MIC (Enterococcus sp. [24]) was > 125 µM. For the same compound, the viability at 48 h, 30 µM [25] was 113%, the MIC (Pseudomonas aeruginosa [26]) was > 125 µM and the pIC50 (A-431) was < 4.52. The MIC (Aspergillus fumigatus [27]) was > 125 µM, the pIC50 (HepG2) was < 4.52 and the MIC (Klebsiella pneumoniae [28]) was > 125 µM. For the same compound, the pIC50 (Huh-7) was < 4.52, the MIC (Mycobacterium kansasii [29]) was 0.03 µM (≈ 0.0131 µg/mL) and the MIC (Candida albicans [30]) was > 125 µM. For the same compound, the viability at 48 h, 30 µM [31] was 143%, the MIC (Pichia kudriavzevii [32]) was > 125 µM and the MIC (Staphylococcus aureus [33]) was > 125 µM. For the same compound, the MIC (Lichtheimia corymbifera [34]) was > 125 µM, the MIC [35] was > 125 µM and the MIC (Mycobacterium kansasii [36]) was 0.03 µM (≈ 0.0131 µg/mL). The MIC (Escherichia coli [37]) was > 125 µM, the MIC (Nakaseomyces glabratus [38]) was > 125 µM and the pIC50 (MDCK) was < 4.52. For the same compound, the selectivity ratio [39] was > 1000, the viability at 48 h, 30 µM [40] was 114% and the MIC (Pseudomonas aeruginosa [41]) was > 125 µM. The MIC [42] was > 125 µM, the MIC (Staphylococcus aureus [43]) was > 125 µM and the MIC (Enterococcus sp. [44]) was > 125 µM. The MIC (Candida tropicalis [45]) was > 125 µM, the MIC (Klebsiella pneumoniae [46]) was > 125 µM and the MIC (Candida tropicalis [47]) was > 125 µM.
